# Key:
# [1] = system: rat carrageenan-induced paw edema (CPE); assay: Rat carrageenan-induced paw edema (CPE) study; type: in vivo
# Protocol: Data from a rat carrageenan-induced paw edema (CPE) study indicated the minimum efficacious exposure of 4-(3-{5-chloro-1-(diphenylmethyl)-2-[2-({[2-(trifluoromethyl)benzyl]sulfonyl}amino)ethyl]-1H-indol-3-yl}propyl)benzoic acid was 1360 ng*hr/ml.
# [2] = Solubility at room temperature in water, acid and basic conditions; type: physicochemical; settings: free acid, below HPLC detection limit, read-out: intrinsic solubility of the free acid
# Protocol: The solubility of 4-(3-{5-chloro-1-(diphenylmethyl)-2-[2-({[2-(trifluoromethyl)benzyl]sulfonyl}amino)ethyl]-1H-indol-3-yl}propyl)benzoic acid was measured at room temperature in water, acid and basic conditions.
structure (smiles),measurement,setting,value
O=C(O)c1ccc(CCCc2c(CCNS(=O)(=O)Cc3ccccc3C(F)(F)F)n(C(c3ccccc3)c3ccccc3)c3ccc(Cl)cc23)cc1 [4-(3-{5-chloro-1-(diphenylmethyl)-2-[2-({[2-(trifluoromethyl)benzyl]sulfonyl}amino)ethyl]-1H-indol-3-yl}propyl)benzoic acid],minimum efficacious exposure,[1],1360 ng·h/mL
same,solubility,[2],< 0.031 µg/mL

# From US20100069385A1, “LIQUID FORMULATIONS OF PHOSPHOLIPASE ENZYME INHIBITORS” (WYETH, priority 2006, published 2010)
